Where a name gives a salt, the structure may show the parent alone.
How the values were obtained:
[1] = system: females with military-related PTSD; details: 5.6 mg dose (N=8) vs placebo (N=16), 12 weeks
Method: (§1) Methods: In this 12-week, multicenter, adaptive design, randomized controlled fixed-dose trial, 5.6 mg cyclobenzaprine-HCl (2×2.8 mg sublingual tablets, comprising a 75%±2% cyclobenzaprine-HCl and 25%±2% mannitol eutectic and a potassium phosphate dibasic anhydrous basifying agent) taken daily at bedtime was compared to placebo for the treatment of PTSD at 45 U.S. sites. […] A pre-planned interim analysis was conducted when about half the originally planned sample of 550 participants had outcome data.
(§2) The modified intention-to-treat (mITT) population, which included all randomized subjects with at least one post-baseline CAPS-5, included 125 participants treated with 5.6 mg dose per day the above cyclobenzaprine-HCl sublingual formulation and 127 participants on placebo were studied.
Sexual functioning was measured by Changes in Sexual Functioning Questionnaire short-form (CSFQ-14) which is a validated 14-item measure (Keller, McGarvey, Clayton, 2006). Parallel gender-specific versions are administered to males (CSFQ-14-M) and females (CSFQ-14-F), and each sex was analyzed separately. In addition to a total sexual functioning score, there are five sub-scales: desire/frequency, desire/interest, arousal/excitement, orgasm/complete, and pleasure. The scales range from (never) to (every day) and higher scores reflect greater levels of sexual functioning.
(§3) In the Phase 3 study in predominantly civilian PTSD, the inclusion criteria were broadened to include civilian participants with current PTSD, as determined by the CAPS-5. Accordingly, this study included 94% civilian trauma with a minimum baseline severity score of >33 on the CAPS-5. […] Thus, analyses were conducted on the interim analysis sample of 252 participants in the military Phase 3 study (89% male [n=225 M; n=27 F]; 100% military PTSD) and […] subjects in the civilian Phase 3 study (79% female [n=129 F; n=34 M]; 94% civilian PTSD).
(§4) The CSFQ-14 is a validated 14-item measure (Keller, McGarvey, Clayton, 2006) that has male and female versions which were analyzed separately. In addition to a total sexual functioning score, there are five sub-scales: desire/frequency, desire/interest, arousal/excitement, orgasm/complete, and pleasure. The items range on 5-point Likert scale from (never) to (every day). Higher scores reflect greater levels of sexual functioning.

[2] = system: participants with PTSD; details: 5.6 mg sublingual dose, both Phase 3 studies
Method: (§5) Three randomized, placebo-controlled and double-blind clinical trials of the above described 5.6 mg cyclobenzaprine-HCl sublingual formulation (2×2.8 mg tablets) were performed, a Phase 2 study and a Phase 3 study in military-related PTSD, and a Phase 3 study in predominantly civilian PTSD. […] The present retrospective analysis examined the activity of the cyclobenzaprine-HCl sublingual formulation on the Changes in Sexual Functioning Questionnaire short form (CSFQ-14) in the two Phase 3 studies.
as §3

[3] = system: females with predominantly civilian PTSD; details: female completers, 5.6 mg dose (N=58) vs placebo (N=55), 12 weeks
Method: as §5, §3, §4

[4] = system: participants with military-related PTSD
Method: as §1, §2

[5] = system: females with military-related PTSD; details: female subgroup (10 active, 17 placebo), 5.6 mg per day sublingual, after 12 weeks of treatment
Method: as §1, §2

[6] = system: participants with military-related PTSD; details: Phase 2 study, drug and placebo groups
Method: as §5

[7] = system: participants with PTSD; details: 5.6 mg dose, all three trials (Phase 2 and two Phase 3)
Method: as §5

[8] = 5.6 mg sublingual daily, military Phase 3 study

SMILES: CN(C)CCC=C1c2ccccc2C=Cc2ccccc21 [cyclobenzaprine-HCl]
- CSFQ-14-F arousal/excitement subscale, Hedges' g effect size vs placebo [1]: 0.55
- CSFQ-14-F desire/frequency subscale, Hedges' g effect size vs placebo [1]: 0.46
- CSFQ-14-F desire/interest subscale, Hedges' g effect size vs placebo [1]: 0.63
- CSFQ-14-F orgasm/completion scale, effect vs placebo [1]: No effect
- CSFQ-14-F pleasure subscale, Hedges' g effect size vs placebo [1]: 0.54
- CSFQ-14-F total score, Hedges' g effect size vs placebo [1]: 0.49
- severity of oral hypoaesthesia (most frequent AE) [2]: never rated as severe
- severity of somnolence (most common systemic AE) [2]: never rated as severe
- duration of oral hypoaesthesia (tongue/mouth numbness), the most frequent AE, post administration ([2]; generally transient): < 60 min
- CSFQ-14-F arousal/excitement subscale, Hedges' g effect size vs placebo [3]: 0.33
- CSFQ-14-F desire/frequency subscale, Hedges' g effect size vs placebo [3]: 0.21
- CSFQ-14-F desire/interest subscale, Hedges' g effect size vs placebo [3]: 0.23
- CSFQ-14-F orgasm/completion subscale, Hedges' g effect size vs placebo [3]: 0.29
- CSFQ-14-F pleasure subscale, Hedges' g effect size vs placebo [3]: 0.19
- CSFQ-14-F total score, Hedges' g effect size vs placebo ([3]; p=0.07): 0.37
- participants with at least one AE leading to study discontinuation ([4]; 5.6 mg dose group, military Phase 3 study (placebo: two)): 8 participants
- duration of oral hypoaesthesia (tongue/mouth numbness), the most frequent AE, post administration ([4]; 5.6 mg sublingual daily at bedtime, military Phase 3 study, generally transient): < 60 min
- severity of oral hypoaesthesia (most frequent AE) [4, 8]: never rated as severe
- severity of somnolence (most common systemic AE) [4, 8]: never rated as severe
- observed mean improvement in CAPS-5 over placebo [5]: −9.1 units
- rates of adverse events related to sexual function [6]: very low rates
- activity on clinician- and patient-rated global PTSD symptoms (CGI and PGIC) [7]: encouraging activity

From patent US20210315841A1, “CYCLOBENZAPRINE TREATMENT FOR SEXUAL DYSFUNCTION” (TONIX PHARMACEUTICALS HOLDING CORP., priority 2020, published 2021)
